Reference: EP1268545B1, “POTASSIUM CHANNEL PROTEIN KCNQ5, A TARGET FOR DISEASES OF CENTRAL NERVOUS SYSTEM AND CARDIOVASCULAR SYSTEM” (priority 2000, dated 2001)

Experiments:
[1] = test system: KCNQ2; details: at 10µM; cited from earlier work
[2] = test system: KCNQ1; details: cited from earlier work
[3] = test system: human KCNQ5 (hKCNQ5) potassium channel, SEQ ID No 2; experiment: Two-electrode voltage-clamp of KCNQ5 currents in Xenopus oocytes injected with cRNA; assay type: cell-based; details: 3s depolarizing step from -100 mV to 0 mV
Protocol: Xenopus laevis oocytes were obtained from tricaine anaesthetized animals. Ovaries were collagenase treated (1 mg/ 1 ml, Worthington, type II) in OR 2 solution (NaCl 82.5 mM, KCl 2 mM, MgCl2 1 mM, HEPES 5 mM, pH 7.4) for 120 min and subsequently stored in recording solution ND-96 (NaCl 96 mM, KCI 2 mM, CaCl2 1.8 mM, MgCl2 1 mM, HEPES 5 mM, pH 7.4) with additional NaPyruvate (275 mg/l), Theophylline (90 mg/l) and Gentamycin (50 mg/l) at 18°C. […] Standard two-electrode voltage-clamp recordings were performed at room temperature with a Turbo Tec 10CD (NPI) amplifier, an ITC-16 interface combined with Pulse software (HEKA) and Origin for data aquisition on Pentium 11 PC. Macroscopic currents were recorded 2-4 days after injection. All fitting procedures were based on the simplex algorithm. Student's t test was used to test for statistical significance, which was assumed if P<0.05 and indicated by *.
However, it can be described by a biexponential function. […] KCNQ5 deactivation was well fitted to a second order exponential function. The two components of deactivation were determined at a repolarizing voltage of -100 mV following a 3s depolarizing step to +40 mV.

[4] = test system: KCNQ3; details: at 10µM; cited from earlier work

| Structure (SMILES) | inhibition of KCNQ2 [1] | IC50 ([2]; read-out: IC50 (block of KCNQ1)) [µM] | reduction of KCNQ5 current ([3]; at 30 µM) [%] | inhibition of KCNQ3 [4] [%] | block of KCNQ1 ([2]; at 100 µM) [%] | block of KCNQ5 currents ([3]; at 100 µM) [%] |
| --- | --- | --- | --- | --- | --- | --- |
| CCCCCCC[N+](CC)(CC)CCCCc1ccc(Cl)cc1 [Clofilium] | little inhibition | < 10 | 40 | 30 | – | – |
| CCS(=O)(=O)N(C)[C@H]1c2cc(C#N)ccc2OC(C)(C)[C@@H]1O (racemic) [chromanol 293B] | – | – | – | – | 80 | 45 |
